Test results reported in patent publication US10624917B2, “Compositions and methods useful for treating or preventing liver diseases or disorders, and promoting weight loss” (YALE UNIVERSITY, priority 2014, dated 2020).
Where no end group is shown, it is not given here.

Experiments:
Type in all cases: cell-based, mouse
[1] = test system: Il1b and other genes in PECs; assay: Quantitative real-time RT-PCR gene expression in PECs; settings: LPS primed PECs, NECA
Method: (§1) FIGS. 3A-3I illustrate the finding that adenosine supersedes LPS induced tolerance and increases IL-1β production by upregulating transcription of pro-IL-1β via cAMP-PKA pathway. PECs were used in all of the following experiments. FIG. 3A: Primed (pri) with LPS (100 ng/ml) for 16 hours followed by stimulation (stim) with LPS (100 ng/ml), or NECA (10 μM) or CGS21680 (10 μM) in the presence or absence of LPS (100 ng/ml) for 6 hours. FIG. 3B: Treated with forskolin for 6 hours as indicated doses with and without LPS priming FIG. 3C: Treated with or without NECA (10 μM), CGS21680 (10 μM) or db-cAMP (200 μM) for 6 hours. FIG. 3D: LPS primed and treated with NECA or CGS21680 in the presence and absence of SQ22536, H89 and PKi. FIG. 3E: Primed with LPS for 16 hours and treated with ATP for 20 min, followed by CGS 21680 in the presence or absence of the adenylyl cyclase and PKA inhibitors SQ22536 and H-89. FIG. 3F: Primed with LPS and treated with or without NECA (10 μM) or db-cAMP (200 μM) for 6 hours. FIG. 3G: Treated with or without CGS21680 (10 μM) for 3 hours, and transcription was stopped by adding […] actinomycin D, and RNA samples collected at indicated times-points. FIG. 3H: LPS primed PECs obtained from wild type or A2AR-cKO mice were stimulated with NECA (10 μM) for 6 hours. The cells were harvested and RNA isolated after each treatment and the gene expression of Il1b and other genes as indicated quantified by real-time PCR using specific primers. FIG. 3I: Primed with LPS for 16 hours and treated with ATP for 20 min, followed by CGS 21680 in the presence or absence of SQ22536 or H-89 Immunoblot analysis of the proIL-1β caspase-1 in cell lysate was performed by specific […] and anti caspase-1 p10 antibodies (FIGS. 3C, 3E-3F, 3I). Data are expressed as the mean±SD from three independent experiments Immunoblots shown are representative results from at least three independent experiments. *p<0.05 determined by Student's t-test.
FIGS. 9A-9H illustrate changes in expression of cytokines and tissue repair genes in peritoneal macrophages in response to adenosine agonists. LPS naive or LPS primed PECs were stimulated with LPS (100 ng ml^−1), CGS21680 (10 μM) or NECA (10 μM) at different time points as indicated. The cells were harvested and RNA isolated after each treatment, and the gene expression of ProIL-1β (Il1b) (FIG. 9A), IL-6 (Il6) (FIG. 9B), IL-4 (Il4) (FIG. 9C), TNF-α (tnfa) (FIG. 9D), TIMP-1 (Timp1) (FIG. 9E), VEGF (vegf) (FIG. 9F), PGK-1 (Pgk1) (FIG. 9G), GLUT-1 (Slc2a1) (FIG. 9H) quantified by real-time PCR using each specific gene primer set as listed. Data are expressed as the mean±SD from three independent experiments. *p<0.05 determined by Student's t-test.
Total RNA was extracted using TRIZOL reagent (Invitrogen), and cDNA was generated with an oligo (dT) primer and the Superscript II system (Invitrogen, USA) followed by analysis using LightCycler 480 system (Roche). q-PCR was performed for Il1b using commercial primer-probe sets (Applied Biosystems Inc.) with DNA master Mix (Roche). Expression of GAPDH was used to standardize the samples, and the results were expressed as a ratio relative to control; q-PCR was performed for tnfa, 116, Txnip, Nlrp3, Hif1a, Timp1, using LightCycler 480 SYBR Green I master mix (Roche). Results were normalized based on the expression of β-actin.

[2] = test system: IL-1β production in murine peritoneal macrophages (PECs); assay: IL-1β secretion (ELISA) by primed, ATP-pulsed peritoneal macrophages (PECs); settings: for IL-1β production in response to NECA and CGS21680: with PKA inhibition
Method: FIGS. 1A-1J illustrate the finding that adenosine stimulates IL-1β production in NLRP3 inflammasome-dependent manner. Murine peritoneal macrophages (PECs) were obtained from wild type (WT) mice (FIGS. 1A-1D, 1F-1I), Il1r−/− (FIG. 1E) or Nlrp3−/−, ASC−/−, P2xr7−/−, or Caspase-1−/− mice (FIG. 1J) and were primed with LPS for 16 hours. FIG. 1A: This was followed by treatment for 1 hour with adenosine (Ad, 100 μM), adenosine deaminase inhibitor (EHNA, 10 μM), adenosine deaminase (ADA, 10 U ml^−1), ATP diphosphohydrolase (Apyrase, 10 U ml^−1), or erythro-9-(2-hydroxy-3-nonyl) adenine (EHNA, 10 μM) (FIGS. 1B, 1F-1J)). Pan adenosine agonist (NECA, 1 μM, 10 μM) (FIGS. 1C, 1E), or (FIGS. 1D, 1I) by NECA for 1 and 6 hours, and were then pulsed with ATP for 20 min. Enzyme-linked immunosobent assay (ELISA) of IL-1β, TNF-α, IL-10 and IFN-γ secretion were measured in cell supernatants after pulsing with ATP for 5 hours (FIGS. 1A, 1C-1E, 1J) or indicated time-course (FIGS. 1B, 1G-1I). LDH assay was performed after pulsing with ATP as indicated time-course (FIG. 1F). Data are expressed as the mean±SD from at least three independent experiments. *p<0.05 determined by Student's t-test.
C57BL/6 mice were purchased from the National Cancer Institute. ASC−/−, Caspase-1−/−, Nlrp3−/− and P2xr7−/− mice have been described (Rock et al., 2010, Annu Rev Immunol. 28:321-42). A2ora2a flox/flox mice and LysMcre mice were purchased from Jackson Laboratories. HIF-1a flox/flox mice were kindly provided by Dr. Ruslan M Medzhitov (Yale University). 7- to 12-week-old males with a variety of genetic manipulations were used in most experiments. The number of mice in each experimental group was chosen based on previous experience with these experimental models. Mouse peritoneal macrophages (PECs) were isolated by peritoneal lavage 3 days after intraperitoneal injection of 4% thioglycollate solution (B2551, Fluka,). Cells were plated at the density of 3×10^6 cells in 12-well dishes and non-adherent cells were removed after 3 h. Cells primed overnight with 100 ng/ml LPS or 10 ng/ml Pam3CSK4 were treated with various chemicals and followed stimulation. Cells were cultured in DMEM medium complemented with 10% FBS, penicillin/streptomycin and L-glutamine. Mouse bone marrow derived macrophages were isolated from bone marrow cells, and were differentiated for 7 days in complete RPMI-1640 medium supplemented with 2 mM L-glutamine, 100 U/ml penicillin, 100 μg/ml streptomycin, 50 μM 2-mercaptoethanol (all from Invitrogen), 10% heat-inactivated FBS and 20 ng/ml M-CSF (PeproTech). Kupffer cells (KC) were isolated by the density gradient separation of Optiprep (Sigma), and then plates were gently washed and media was replenished after seeding cells for 2 hours to raise KC purity.
Primed PECs were both pulsed for 20 min with 5 mM ATP or 10 μM nigericin, and left untreated until culture supernatants were collected. Secretion of IL-1β was determined by enzyme-linked immunoabsorbent assay (ELISA; R&D Systems).

[3] = test system: active caspase-1 / pro-IL-1β in PECs; assay: Western blot of caspase-1 and pro-IL-1β in PECs; settings: for CGS21680 induced increase in LPS/ATP induced active caspase-1: LPS/ATP + CGS21680 with inhibitor; for active (cleaved) caspase-1: in response to LPS/ATP
Method: FIGS. 2A-2H illustrate the finding that adenosine mediates increase in IL-1β via the A2A receptor and amplifies signal 1 and signal 2 pathways. FIG. 2A: LPS primed PECs were treated with NECA (10 μM) in the presence or absence of […] different adenosine receptor antagonists for A1 (DPCPX, 10 nM), A2A (ZM 241385, 10 μM), A2B (MRS1706, 10 nM), A3 (MRS1523, 5 μM), or their combinations for 1 hour, and pulsed with ATP for 20 min. FIGS. 2A-2B: A2A receptor specific agonist (CGS21680) and antagonist ZM 241385 increase and block IL-1β production respectively. […] FIG. 2D: PEC's from A2A receptor deficient cells have low IL-1β production, which is not increased by NECA and CGS 21680. FIG. 2E: CGS21680 increases induction of Il1b mRNA expression, and this was decreased in A2A receptor deficient cells. FIG. 2F: Loss of the A2A receptor in macrophages results in much lower levels of Il1b protein A expression in response to LPS. FIG. 2G: CGS21680 and […] increases and decreases production of cleaved caspase-1, respectively. FIG. 2H: The production of cleaved caspase-1 is decreased in A2A receptor deficient macrophages. Data are expressed as the mean±SD from at least three independent experiments Immunoblots shown are representative results from at least three independent experiments. p<0.05 determined by Student's t-test.
as §1
Liver tissue lysates or PECs were lysed in RIPA buffer (10 mM phosphate buffer pH 7.4, 150 mM NaCl, 1% NP-40, 0.5% sodium deoxycholate, 0.1% SDS) supplemented with complete protease inhibitor cocktail (Roche) and 2 mM dithiothreitol. Lysates were resolved in 4-12% Tris-glycine gradient gels (Invitrogen) and transferred to nitrocellulose (Invitrogen) by electro-blotting. The following antibodies were used: rabbit anti-caspase-1 p10 (SC-514, Santa Cruz), goat anti-mouse IL-1β (BAF401, R&D Systems), Rabbit antimouse HIF-1α (NB100-449, Novus Biologicals, Littleton, Colo.).

[4] = LPS-primed PECs pulsed with ATP

COC(=O)c1ccc(O)c(NC(=O)COc2ccc(C34CC5CC(CC(C5)C3)C4)cc2)c1 [CAY10585]
adenosine agonist induced Il1b expression [1]: significantly decrease
adenosine agonist induced IL-1β production ([2]; LPS primed PECs, ATP pulse): significantly decrease

Nc1nc(NCCc2ccc(O)cc2)nc2nc(-c3ccco3)nn12 [ZM241385]
NECA-increased IL-1β production ([2]; LPS + ATP + NECA with receptor antagonist): inhibited
IL-1β production stimulated by CGS21680, NECA and EHNA ([2]; LPS + ATP with antagonist): inhibited
IL-1β production [2, 4]: block
CGS21680 induced increase in LPS/ATP induced active caspase-1 [3]: inhibited
active (cleaved) caspase-1 [3]: decreased
active (cleaved) caspase-1 ([3]; listed as ZM241395): decreases

O=S(=O)(NCCNC/C=C/c1ccc(Br)cc1)c1cccc2cnccc12 [H-89]
IL-1β production in response to NECA and CGS21680 [2]: significantly reduced
CGS21680 induced increase in LPS/ATP induced active caspase-1 [3]: reduced

PKI 14-22 amide (SGRTGRRNA-NH2; UniProt P61925 14-22, looked up, fragment)
IL-1β production in response to NECA and CGS21680 [2]: significantly reduced

CCCC(=O)Nc1ncnc2c1ncn2[C@@H]1O[C@@H]2COP(=O)([O-])O[C@H]2[C@H]1OC(=O)CCC.[Na+] [db-cAMP, N6,2′-O-Dibutyryladenosine 3′,5′-cyclic monophosphate sodium salt]
up-regulation of Pro-IL-1β ([3]; 6 hours, FIG. 3C): induced up-regulation
pro-IL1β protein levels ([3]; cells from A2AR-cKO mice): increase

Nc1ncnc2c1ncn2[C@@H]1O[C@H](CO)[C@@H](O)[C@H]1O [adenosine]
IL-1β production [2, 4]: significantly increased
IL-1β production ([2]; in the absence of either LPS or ATP): did not result in any detectable IL-1β

Nc1ncnc2c1ncn2C1CCCO1 (stereo not drawn) [SQ22536]
increase in IL-1β induced by CGS21680 and EHNA ([2]; with adenylate cyclase inhibitor): block
CGS21680 induced increase in LPS/ATP induced active caspase-1 [3]: reduced

B1: adenosine deaminase: Adenosine deaminase obtained from Worthington Biochemical corporation (protein, UniProt P56658 2-363, looked up)
Adenosine deaminase: AQTPAFNKPKVELHVHLDGAIKPETILYYGRKRGIALPADTPEELQNIIGMDKPLSLPEFLAKFDYYMPAIAGCREAVKRIAYEFVEMKAKDGVVYVEVRYSPHLLANSKVEPIPWNQAEGDLTPDEVVSLVNQGLQEGERDFGVKVRSILCCMRHQPSWSSEVVELCKKYREQTVVAIDLAGDETIEGSSLFPGHVKAYAEAVKSGVHRTVHAGEVGSANVVKEAVDTLKTERLGHGYHTLEDATLYNRLRQENMHFEVCPWSSYLTGAWKPDTEHPVVRFKNDQVNYSLNTDDPLIFKSTLDTDYQMTKNEMGFTEEEFKRLNINAAKSSFLPEDEKKELLDLLYKAYGMPSPASAEQCL
IL-1β production [2, 4]: significant reduction
